Biological target: C-C chemokine receptor type 2 (Homo sapiens, UniProt P41597)
Assay: Inhibition of CCR2

Sequence of C-C chemokine receptor type 2 (P41597 whole entry): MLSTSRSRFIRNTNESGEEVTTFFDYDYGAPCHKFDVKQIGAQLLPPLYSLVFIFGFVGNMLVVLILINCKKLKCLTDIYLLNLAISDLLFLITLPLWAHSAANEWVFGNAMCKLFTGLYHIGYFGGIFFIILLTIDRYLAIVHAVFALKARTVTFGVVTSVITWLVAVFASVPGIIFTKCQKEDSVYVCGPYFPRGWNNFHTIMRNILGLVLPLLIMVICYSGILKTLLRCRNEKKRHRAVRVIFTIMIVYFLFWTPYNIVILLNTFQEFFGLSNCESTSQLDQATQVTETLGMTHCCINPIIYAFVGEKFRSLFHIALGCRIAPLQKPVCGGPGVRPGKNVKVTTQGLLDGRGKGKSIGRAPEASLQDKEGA

**Q.** With `COC(=O)[C@H](Cc1cnc[nH]1)NC(=O)CCc1cc(-c2cc(Cl)cc(Cl)c2)nn1-c1ccc2ccccc2c1` as the compound, how does the IC50 read?
**A.** 2840 nM

**Q.** `O=C(CCc1cc(-c2cc(Cl)cc(Cl)c2)nn1-c1ccc2ccccc2c1)NCCCc1ccc2c(n1)NCCC2` was tested. Which IC50 did it give?
**A.** 9330 nM

**Q.** With `O=C(CCc1cc(-c2cc(Cl)cc(Cl)c2)nn1-c1ccc2ccccc2c1)NCCCc1ccncc1` as the compound, how does the IC50 read?
**A.** 1120 nM

**Q.** `CN(C)CCCCNC(=O)CCc1cc(-c2cc(Cl)cc(Cl)c2)nn1-c1ccc2ccccc2c1` was tested. Which IC50 did it give?
**A.** 1800 nM

**Q.** `CCN(CC)CCCCNC(=O)CCc1cc(-c2cc(Cl)cc(Cl)c2)nn1-c1ccc2ccccc2c1` was tested. Which IC50 did it give?
**A.** 1220 nM

**Q.** `CCN(CC)C(C)CCCNC(=O)CCc1cc(-c2cc(Cl)cc(Cl)c2)nn1-c1ccc2ccccc2c1` (centres undefined) was tested. Which IC50 did it give?
**A.** 108 nM

**Q.** For `COC(=O)[C@H](CCCN=C(N)N)NC(=O)CCNCc1cc(-c2cc(Cl)cc(Cl)c2)nn1-c1ccc2ccccc2c1`, which IC50 is on record?
**A.** 43 nM

**Q.** `CCN(CC)CCCC(C)NC(=O)CCCc1cc(-c2cc(Cl)cc(Cl)c2)nn1-c1ccc2ccccc2c1` (centres undefined) was tested. Which IC50 did it give?
**A.** 6470 nM

**Q.** Which IC50 does the source give for `CCCCC(CCCN(CC)CC)NC(=O)CCOc1cc(-c2cc(Cl)cc(Cl)c2)nn1-c1ccc2ccccc2c1` (centres undefined) here?
**A.** 52 nM
